Test results published in patent publication US20110146678A1, “PROCESS FOR IMPROVING CRYSTALLINITY” (priority 2008, published 2011).
Counter-ions that a name gives are not always drawn.

Tests used:
Format in all cases: physicochemical
[1] = pMDI formulation, particle fraction distribution on NGI stages; conditions: stage 5 cut-off 1.36 μm
Method: Both samples were produced in a similar manner to sample 2 of Example 2. Sample 1 was prepared from atomization of a 3% solution of fluticasone propionate in 20% dichloromethane in methanol (3 g in 100 ml) and Sample 5 was prepared from atomization of 3% solution in acetone (3 g in 100 ml). […] The FPF values were 11.80% and 13.80% on stage 5 for samples 5 and 1 respectively compared with 6.20% for micronized material.

[2] = Respirable fraction / FPF by Next Generation Impactor (general summary); conditions: particles of the present invention vs prior art
Excerpt: The particle size distribution of the aerosol formulations according to the invention may be measured by conventional techniques, for example by using a Next Generation Impactor (NGI) with pre-separator for example by cascade impaction or by the “Twin Impinger” analytical process. As used herein reference to the “Twin Impinger” assay means “Determination of the deposition of the emitted dose in pressurised inhalations using apparatus A” as defined in British Pharmacopoeia 1988, pages A204-207, Appendix XVII C. Such methods involve filling the pre-separator with HPLC mobile phase and the cups of the NGI cups were coated with 1% v/v silicone oil in hexane to eliminate particle bounce. […] The mass of drug deposited on each part of the NGI can then be determined by HPLC. The FPD determined represents the mass of drug collected on stages 3-8 of the NGI. The FPF emitted dose is also determined. The aerosolisation efficiency as determined by percentage fine particle fraction (% FPF) or respirable fraction is also assessed.
Such techniques enable the “respirable fraction” of the aerosol formulations to be calculated. As used herein reference to “respirable fraction” means the amount of active ingredient collected in the lower chamber in the NGI per actuation expressed as a percentage of the total amount of active ingredient delivered per actuation using the method described above. […]

[3] = Aerosolisation efficiency of binary DPI formulations (0.4% w/w FP in lactose), NGI via Rotahaler; conditions: optimal particles
Method: The aerosolization efficiency of samples 2, 3 and 4 of engineered FP were evaluated using binary formulations containing 0.4% w/w FP.
Each binary formulation contained 0.016 g FP and 3.984 g lactose (ML001, DMV-Fonterra, Vehgel, Netherlands) and was prepared by geometric mixing. Following this, the blend was subsequently prepared using a Turbula T2F (Willy A Bachofen A G, Basel, Switzerland) at 46 rpm for 45 minutes.
Following content uniformity testing, 12.5±1 mg of each blend was loaded into size 3 hydroxypropylmethyl cellulose capsules (HPMC, Shionogi Qualicaps S A, Basingstoke, UK). The capsules were stored at 44% RH for 24 h prior to in vitro performance testing.
Testing was performed using a Next Generation Impactor (NGI) with pre-separator, which was connected to a vacuum pump (GE Motors). Prior to testing, the pre-separator was filled with 15 ml of mobile phase and the cups of the NGI cups were coated with 1% v/v silicone oil in hexane to eliminate particle bounce.
For each experiment, four individual capsules of the same formulation were discharged into the NGI at 60 Lpm for 4 s via a Rotahaler (GSK, Ware, UK) DPI device. Additionally, blisters from a Flixotide Diskus (GSK, Ware, UK) were emptied and loaded into size 3 HPMS capsules and discharged into a NGI at 60 Lpm1 for 4 s via a Rotahaler. Following aerosolization, the NGI apparatus was dismantled and the inhaler, capsules and each part of the NGI was washed down into known volumes of HPLC mobile phase.
The mass of drug deposited on each part of the NGI was determined by HPLC. This protocol was repeated three times for each blend, following which, the mass median aerodynamic diameter (MMAD), geometric standard deviation (GSD), fine particle dose (FPD) and fine particle fraction of the emitted dose (FPFED) were determined. The FPD represented the mass of drug that was collected on stages 3-8 of the NGI.

Row | FPF on stage 5 of the NGI [1] [%] | FPF greater than micronized/milled [3] [%] | FPF greater than precipitated material [3] | Structure (SMILES) | increase in FPF compared to the prior art [2]
1 | 11.80 | – | – | CCC(=O)O[C@]1(C(=O)SCF)[C@H](C)C[C@H]2[C@@H]3C[C@H](F)C4=CC(=O)C=C[C@]4(C)[C@@]3(F)[C@@H](O)C[C@@]21C [Sample 5, fluticasone propionate] | –
2 | – | – | – | CC(Cc1ccc(O)cc1)NCC(O)c1cc(O)cc(O)c1 (stereo not drawn) [Fenoterol hydrobromide] | 30-50%
3 | 13.80 | – | – | CCC(=O)O[C@]1(C(=O)SCF)[C@H](C)C[C@H]2[C@@H]3C[C@H](F)C4=CC(=O)C=C[C@]4(C)[C@@]3(F)[C@@H](O)C[C@@]21C [Sample 1, fluticasone propionate] | –
4 | – | 54 | over 200% | CCC(=O)O[C@]1(C(=O)SCF)[C@H](C)C[C@H]2[C@@H]3C[C@H](F)C4=CC(=O)C=C[C@]4(C)[C@@]3(F)[C@@H](O)C[C@@]21C [fluticasone propionate] | 50-60%
